The values below come from patent US11780868B1, “Homoleptic metal coordination complexes as antifungal agents” (King Abdulaziz University, priority 2023, dated 2023).

Molecules are shown by their SMILES.

For one test, the system named is C. albicans 5112. Put plainly: JC-10 mitochondrial membrane potential assay. Type of test: cell-based, Candida albicans. Particulars: 4 h, negative control 2.92. How it is done:
(§1) To examine the effect of C1 on the induction of cellular apoptosis in C. albicans cells, crucial apoptotic markers were observed. For this purpose, C. albicans 4251 and C. albicans 5112 cells were subjected to protoplast preparation by utilizing a method described previously by Srivastava et al. in 2020 through their research study. […] Later on, the cells were washed and incubated for 10 min at room temperature in protoplast buffer-1 (1M sorbitol, 0.05M tris base, 0.01M MgCl2, 0.03M DTT, pH 7.4). The cells were spun at 1500 rpm for 5 min and the pellet was resuspended in protoplast buffer-2 (1M sorbitol, 0.05M tris base, 0.01M MgCl2, 0.001M DTT, pH 7.4) supplemented with […] enzyme (1 μg/mL) and incubated for 1 h at room temperature. Afterwards, the cell suspension was again centrifuged, and the pellet was resuspended and incubated for 20 min at room temperature in protoplast buffer-3 (1M sorbitol, 0.05M tris base, 0.01M MgCl2, pH 7.4). A final washing (1500 rpm for 5 min) was given to the cells and the pellet consisting of C. albicans protoplasts was resuspended in fresh PBS and was stored at 4° C. until further use. Measurement of mitochondrial membrane potential in C. albicans was carried out and the potential of C1 in destabilising mitochondrial membrane potential (Δψm) in C. albicans was established by JC-10 mitochondrial membrane potential assay kit (Abeam, Cambridge, UK). The experiment was performed according to manufacturer instructions. 90 μL of prepared protoplast of C. albicans 4251 and C. albicans 5112 was added to a 96-well microplate (with black walls and clear bottom), followed by the addition of 50 μL/well of JC-10 dye-loading solution. The microplate was incubated for 1 hour at 37° C. in the dark. This was followed by the addition of 50 μL/well of assay buffer B. The microplate was then immediately centrifuged at 800 rpm for 2 minutes. The fluorescence intensity was monitored at an Ex/Em=490/530 nm (present in apoptotic cells, monomeric form and green fluorescence; represented as X) and 540/590 nm (present in live cells, dye aggregates and red fluorescence; represented as Y) using a SpectraMax® ID3 Multimode Plate Reader (Molecular Devices, LLC., USA). The ratio between the aggregate and monomeric forms was measured to find the change in mitochondrial membrane potential. The mitochondrial membrane depolarization is indicated by decreasing ratio values.

The next test has as its system C. albicans 4251. Put plainly: JC-10 mitochondrial membrane potential assay. The format is cell-based, Candida albicans. Particulars: 4 h, negative control 2.65. How it is done: as §1

Turning to `Brc1ccc([O][Co][O]c2ccc(Br)cc2C=Nc2ccc3c(c2)OCCO3)c(C=Nc2ccc3c(c2)OCCO3)c1` [Complex C1, [Co(L)2]], the “average fluorescence ratio JC-10 aggregates/JC-10 monomers” value amounted to 2.24 in the test with C. albicans 5112 (C. albicans 5112, 0.5×MIC); 1.71 in the test on C. albicans 5112 (C. albicans 5112, 1×MIC); 2.04 with C. albicans 4251 (C. albicans 4251, 0.5×MIC); 1.6 in the test with C. albicans 4251 (C. albicans 4251, 1×MIC).
